Residues, ends and D or L forms follow the SMILES beside them. No end group written: not given here.
Experiments:
Type in all cases: cell-based
[1] = target: T1, TLR2/TLR6 heterodimer (Mus musculus, UniProt Q9QUN7); test: P2C-induced cytokine mRNA expression in mouse macrophages; settings: peptide 30 min; P2C 50 ng/ml 1 hour (FIG. 15B)
T1 construct: endogenous in cells; host or cells: thioglycollate-elicited mouse peritoneal macrophages
Source text: (§1) Total cellular RNA was isolated using Tripure from Roche (San Francisco, Calif.) following manufacture's protocol. RNA was then reverse transcribed using AMV Reverse Transcriptase from Promega (Madison, Wis.) with poly-T priming as per manufacturer's directions. cDNA was then quantified by real-time PCR using Applied Biosystems Fast SYBR Green PCR Master Mix and an ABI Prism 7500HT cycler. Primers used for detection: hypoxanthine phosphoribosyltransferase (HPRT) (forward: […] (SEQ ID NO:51), reverse: […] (SEQ ID NO:52)), TNFα (forward: […] (SEQ ID NO:53), reverse: […] (SEQ ID NO:54)), IL-1β (forward: […] (SEQ ID NO:55), reverse: […] (SEQ ID NO:56)), IFNβ (forward: […] (SEQ ID NO:57), reverse: CTCGGACCACCATCCAGG (SEQ ID NO:58)) and RANTES (forward: […] (SEQ ID NO:59), reverse: […] (SEQ ID NO:60)). The primers were designed using Primer Express 2.0 (Applied Biosystems). Using HPRT as reference, the ΔCt method was used to calculate relative gene expression. One-way ANOVA was preformed, as well as Dunnett's multiple comparison post hoc test with a p≦0.01 selected as the level of significance.
(§2) Protein-free Escherichia coli K235 LPS was used at final concentration of 10 ng/ml to stimulate cells. S-[2,3-bis(palmitoyloxy)-(2-RS)-propyl]-N-palmitoyl-(R)-Cys-Ser-Lys4-OH (P3C) and S-[2,3-bis(palmitoyloxy)-(2-RS)-propyl]-[R]-Cys-Ser-Lys4-OH (P2C) were purchased from EMC microcollections GmbH (Tubingen, Germany) and used for cell stimulation at 500 and 50 ng/ml, respectively. Phospho-ERK1/2 and phospho-JNK1/2 rabbit Abs were obtained from Cell Signaling Technology, Inc. β-actin rabbit Ab were from SantaCruz Biotechnology, Inc.
(§3) Because of the role TRAP plays in TLR2 signaling, TIRAP TIR-derived decoy peptide effects on TLR2-induced cytokine mRNA expression were examined. Thioglycollate-elicited mouse macrophages were stimulated either by P2C, an agonist that induces signaling through TLR2/TLR6 heterodimerization, or P3C, a TLR2/TLR1 agonist, and effects of TIRAP TR-derived decoy peptides on induction of cytokine mRNA were examined. […] To confirm the inhibitory effect of TR3 and TR6 on P3C-induced signaling, IL-6 and TNF-α concentration was measured in macrophage supernatants collected 5 h after stimulation of cells with P3C. […] Concordantly, both TR3 and TR6 diminished the P3C-induced ERK phosphorylation (FIG. 3D).
(§4) C57BL/6J mice were obtained from The Jackson Laboratory (BarHarbor, Me.). Harvesting, culturing, and stimulation of peritoneal macrophages were described in previous publications (1, 18, 19). Escherichia coli K235 LPS (34) was used at the final concentration of 100 ng/ml. The 2,3-bis(palmitoyloxy)-(2-RS)-propyl-N-palmitoyl-(R)-Cys-Ser-Lys4-OH (P3C) and S[2,3-bis(palmitoyloxy)-(2-RS)-propyl]-[R]-Cys-Ser-Lys4-OH (P2C) (EMC Microcollections, Tubingen, Germany) were used at 500 and 50 ng/ml, respectively. Oligonucleotide (ODN) 1668 and low m.w. polyinosinic-polycytidylic acid [poly(I:C)] in complex with LyoVec were obtained from InvivoGen; these agonists were used at 2.5 μM and 400 ng/ml, respectively.

[2] = target: T2, TLR2/TLR1 heterodimer (Mus musculus, UniProt Q9QUN7); test: P3C-induced cytokine mRNA expression in mouse macrophages; settings: peptide 30 min; P3C 500 ng/ml 1 hour (FIG. 15A)
T2 construct: endogenous in cells; host or cells: thioglycollate-elicited mouse peritoneal macrophages
T2 sequence (Q9QUN7 25-784, one chain of several): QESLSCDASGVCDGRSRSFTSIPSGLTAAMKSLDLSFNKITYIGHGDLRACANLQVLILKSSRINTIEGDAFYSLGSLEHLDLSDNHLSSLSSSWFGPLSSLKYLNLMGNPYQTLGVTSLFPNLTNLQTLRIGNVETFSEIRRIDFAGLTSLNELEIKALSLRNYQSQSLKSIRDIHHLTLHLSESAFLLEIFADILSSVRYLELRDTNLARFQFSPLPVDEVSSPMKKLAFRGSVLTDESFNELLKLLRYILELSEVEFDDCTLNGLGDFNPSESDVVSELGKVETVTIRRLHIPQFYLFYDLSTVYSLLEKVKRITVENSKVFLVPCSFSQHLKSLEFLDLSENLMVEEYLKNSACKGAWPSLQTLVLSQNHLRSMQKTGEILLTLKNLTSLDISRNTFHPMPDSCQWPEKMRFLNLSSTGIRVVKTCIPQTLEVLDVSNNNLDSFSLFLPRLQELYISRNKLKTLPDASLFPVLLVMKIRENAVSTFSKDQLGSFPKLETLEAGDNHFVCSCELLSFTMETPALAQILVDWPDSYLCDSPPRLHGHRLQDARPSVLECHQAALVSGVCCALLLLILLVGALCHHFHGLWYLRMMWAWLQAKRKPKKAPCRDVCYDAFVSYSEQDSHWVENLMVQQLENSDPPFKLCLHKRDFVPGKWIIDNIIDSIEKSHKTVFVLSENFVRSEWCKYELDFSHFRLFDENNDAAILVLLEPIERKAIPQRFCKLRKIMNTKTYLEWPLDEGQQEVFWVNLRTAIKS
Source text: as §1, §2, §3, §4

[3] = target: T3, TLR2 (Mus musculus, UniProt Q9QUN7); test: Inhibition of TLR2 signaling in thioglycollate-elicited mouse macrophages (effective concentration, TLR2 agonists P3C/P2C); settings: for Effective conc.: TLR2 pathway, thioglycollate-elicited mouse macrophages; for IL-1β expression induced by TLR2 agonists: P2C and P3C (FIG. 16A, B)
T3 construct: Primary peritoneal macrophages were obtained by peritoneal lavage; endogenous in cells; host or cells: thioglycollate-elicited mouse peritoneal macrophages
T3 sequence (Q9QUN7 25-784): as the sequence (Q9QUN7 25-784, one chain of several) above
Protocol: (§5) C57BL/6J mice were obtained from The Jackson Laboratory (Bar Harbor, Me.). Primary peritoneal macrophages were obtained by peritoneal lavage 4 days after intraperitoneal injection (3 ml) of sterile 3% thioglycolate broth. Washed cells were resuspended in RPMI 1640 which contained 2% FBS, 1% penicillin:streptomycin and 2 mM L-glutamine. After plating, cells were incubated overnight at 37° C. and then washed with PBS to remove non-adherent cells. Cells were exposed to peptides 30 min before stimulation with a TLR agonist.
as §2, §3, §4

[4] = tested on: TLR4; test: LPS-induced cytokine mRNA expression in mouse macrophages (real-time RT-PCR); settings: for LPS-induced cytokine mRNA induction: peritoneal macrophages (FIG. 14A); for LPS-induced TNF-α and IL-1β mRNA expression: 20 μM peptide 30 min, LPS 1 hour (FIG. 13A)
Protocol: as §5, §1
Total RNA was isolated with Nucleospin RNA II kits (Macherey-Nagel, Bethlehem, Pa.), followed by DNase digestion. cDNA was synthesized from 1 μg RNA using Goscript transcriptase (Promega), and subjected to real-time PCR with gene-specific primers for HPRT, TNF-α, IL-1β, IFNβ, and RANTES on H7900 ABI system using Fast SYBR Green master mix (Applied Biosystems, Foster City, Calif.).
To evaluate peptide-inhibitory activities, we first measured LPS-induced cytokine mRNA expression. […] […] Decoy peptide TM4 is derived from the BB loop of TRAM TIR; we previously identified this peptide as an effective TLR4 inhibitor (19).

[5] = tested on: TLR4; test: LPS-induced MAPK (ERK, JNK, p38) activation in mouse macrophages (Western analysis); settings: for LPS-induced activation of ERK and JNK MAPKs: peritoneal macrophages (FIG. 14B); for LPS-induced activation of p38 and ERK MAPKs: 20 μM peptide, LPS 30 min
Protocol: Cellular protein extracts were isolated by addition of 240 μL per well cold lysate buffer (20 mM Tris, 50 mM NaCl, 1.5 mM MgCl2, 2 mM EDTA, 10 mM NaF, 2 Mm DTT, 1 mM Na3VO4, 1% Triton). Cells were incubated with lysis solution for 30 min on agitator at 4° C. Lysate was then collected and centrifuged at 14,000 g for 10 minutes at 4° C. After quantification using BioRad protein assay, protein samples were added to Laemmli buffer and then boiled for 10 min. Samples were then resolved by SDS-10% PAGE in Tris/glycine/SDS buffer (25 mM Tris, 250 mM glycine, 0.1% SDS), and transferred onto Immobilon P transfer membranes (Millipore, Bedford, Mass.) (100 V, 1.5 h, 4° C.). Membranes were blocked for 1 h in TBS-T (20 mM Tris-HCl, 150 mM NaCl, 0.1% Tween 20) containing 5% nonfat milk, then probed for overnight at 4° C. with the respective antibodies (Abs) (dilution 1:1000 in TBS-T with 2% BSA). After washing in TBS-T, membranes were incubated with secondary HRP-conjugated, donkey anti-rabbit IgG (1:10,000 dilution in TBS-T with 5% nonfat milk) for 1 h at room temperature. Membranes washed five times in TBS-T before development with ECL reagents (GE Healthcare) according to manufacturer's directions.
HEK293T cells were transfected with indicated plasmids using Superfect Transfection Reagent (Qiagen). Twenty-four hours posttransfection, the cells were lysed using the buffer containing 20 mM HEPES (pH 7.4), 150 mM NaCl, 10 mM NaF, 2 mM Na3VO4, 1 mM EDTA, 1 mM EGTA, 0.5% Triton X-100, 0.1 M DTT, 1 mM PMSF, and protease inhibitor mixture (Roche, Indianapolis, Ind.). Rabbit Ab against phospho-ERK, phospho-JNK, MyD88 (D80F5), STAT1-Y701, total STAT1, and GAPDH were purchased from Cell Signaling Technology (Beverly, Mass.). Rabbit anti-phospho-p38 Ab was purchased from Promega (Madison, Wis.). Goat anti-TLR4 (M−16), rabbit anti-TLR4 (H-80), anti-HA-HRP (F-7), and rabbit anti-b-actin Ab were purchased from Santa Cruz Biotechnology. Mouse anti-Flag M2 and rabbit anti-HA Ab were from Sigma-Aldrich. GFP Ab (A1122) was from Invitrogen. Protein was quantified using Bio-Rad protein quantification kit. Equal amount of protein was loaded and analyzed by 10% SDS-PAGE and immunoblotting. The cell extracts containing equal amount of protein were incubated with 1 μg Ab for 2 h, followed by 4-h incubation with 25 μl protein G agarose beads (Roche); the beads were then washed four times with lysis buffer, boiled in […] sample loading buffer, and analyzed by immunoblotting.
We next examined whether TRAM peptides inhibit the TLR4-mediated p38, ERK, and JNK MAPK activation. Murine macrophages pretreated with peptides for 30 min were challenged with LPS. Cell lysates were collected 30 min post-stimulation and analyzed for MAPK phosphorylation by Western analysis. Consistent with peptide effects on steady-state mRNA, both TM4 and TM6 inhibited activation of all three MAPKs (FIG. 5C). The inhibition of MAPKs by TM4 or TM6 was long lasting; it persisted for at least 1 h after LPS stimulation (data not shown). To characterize further the effects of TRAM peptides on MAPKs, murine macrophages were treated with TRAM peptides, but not challenged by LPS.

[6] = tested on: TLR4; test: Inhibition of TLR4 signaling in thioglycollate-elicited mouse macrophages (effective concentration, overall inhibitory activity); settings: TLR4 pathway; thioglycollate-elicited mouse macrophages
Protocol: as §5
TIRAP/Mal functions to facilitate MyD88 recruitment to the activated TLR4 and TLR2, presumably through a simultaneous interaction with receptor and MyD88 TIR domains. Therefore, multiple TIR:TIR interaction sites are expected in TIRAP TIR. The decoy peptide approach was used to obtain leads on the functional protein-protein interfaces within TIRAP/Mal, a TLR adapter protein. To this end, eleven TIRAP TIR-derived decoy peptides were designed to be structurally homologous to the TLR4 TIR-derived decoy peptides used previously (1), so that each peptide represents a non-fragmented patch of the TIRAP TIR surface, with the entire domain encompassed by the set of peptides. The TIRAP TIR-derived decoy peptides were synthesized in tandem with the cell-permeating sequence of Antennapedia homeodomain (21) and each peptide was tested for the ability to inhibit TLR4 and TLR2 signaling in primary mouse macrophages. Peptide sequences and the structural regions they represent are shown in reference (30).
as §4

T1 sequence (Q9QUN7 25-784, one chain of several): as above

Molecule	Effective conc. [3] [µM]	LPS-induced cytokine mRNA induction [4]	LPS-induced activation of ERK and JNK MAPKs [5]	Effective conc. [6] [µM]	other results
CC[C@H](C)[C@H](NC(=O)[C@H](CCCCN)NC(=O)[C@@H](NC(=O)[C@H](CCC(N)=O)NC(=O)[C@@H](N)CCCNC(=N)N)[C@@H](C)CC)C(=O)N[C@@H](Cc1c[nH]c2ccccc12)C(=O)N[C@@H](Cc1ccccc1)C(=O)N[C@@H](CCC(N)=O)C(=O)N[C@@H](CC(N)=O)C(=O)N[C@@H](CCCNC(=N)N)C(=O)N[C@@H](CCCNC(=N)N)C(=O)N[C@@H](CCSC)C(=O)N[C@@H](CCCCN)C(=O)N[C@@H](Cc1c[nH]c2ccccc12)C(=O)N[C@@H](CCCCN)C(=O)N[C@@H](CCCCN)C(=O)N[C@@H](CCCNC(=N)N)C(=O)N[C@@H](CCCCN)C(=O)N1CCC[C@H]1C(=O)N[C@@H](CCCCN)C(=O)N[C@@H](CCCCN)C(=O)N[C@@H](C)C(=O)N1CCC[C@H]1C(=O)N[C@@H](CS)C(=O)N[C@@H](CCCNC(=N)N)C(=O)N[C@@H](CC(=O)O)C(=O)N[C@H](C(=O)N[C@@H](CS)C(=O)N[C@@H](Cc1ccc(O)cc1)C(=O)N[C@@H](CC(=O)O)C(=O)O)C(C)C [Peptide 2R1] (H-RQIKIWFQNRRMKWKKRKPKKAPCRDVCYD-OH; N-terminus and C-terminus assumed)	40	–	–	–	Cytokine mRNA expression induced by P2C [1]: inhibit; Cytokine mRNA expression induced by P3C [2]: inhibit
RQIKIWFQNRRMKWKKAGCKKYSRGESIYD [Peptide 4R1]	–	potently inhibit	potently inhibit	20	–
RQIKIWFQNRRMKWKKEEGVPRFHLC [Peptide 4R3]	–	potently inhibit	potently inhibit	20	–
RQIKIWFQNRRMKWKKENSDPPFKLC [Peptide 2R3]	40	–	–	–	Cytokine mRNA expression induced by P3C [2]: inhibit
RQIKIWFQNRRMKWKKEPIERKAIPQRFCK [Peptide 2DD-αD]	40	–	–	–	IL-1β expression induced by TLR2 agonists [3]: potently inhibits
RQIKIWFQNRRMKWKKEQTDYRLKLC [Peptide M3]	–	–	–	20	LPS-induced TNF-α and IL-1β mRNA expression [4]: inhibit; LPS-induced activation of p38 and ERK MAPKs [5]: inhibit
RQIKIWFQNRRMKWKKHIFWRRLKNALLD [4R11/4αE]	–	potently inhibit	potently inhibit	20	–
RQIKIWFQNRRMKWKKIASELIEKRCRRM [Peptide M5]	–	–	–	20	LPS-induced TNF-α and IL-1β mRNA expression [4]: inhibit; LPS-induced activation of p38 and ERK MAPKs [5]: inhibit
RQIKIWFQNRRMKWKKLHKRDFVPGKWIID [Peptide 2BB]	40	–	–	–	IL-1β expression induced by TLR2 agonists [3]: inhibits
RQIKIWFQNRRMKWKKLRQQVELYRLLSR [Peptide 4R9]	–	potently inhibit	potently inhibit	20	–
RQIKIWFQNRRMKWKKPQRFCKLRKIMNT [Peptide 2R9]	40	–	–	–	Cytokine mRNA expression induced by P2C [1]: inhibit; Cytokine mRNA expression induced by P3C [2]: inhibit; TLR2-induced ERK activation ([3]; FIG. 16C): strongly inhibits
RQIKIWFQNRRMKWKKSDRDVLPGTCVWS [Peptide M4]	–	–	–	20	LPS-induced TNF-α and IL-1β mRNA expression [4]: inhibit; LPS-induced activation of p38 and ERK MAPKs [5]: inhibit

Source: US20130203649A1, “INHIBITORS OF TLR SIGNALING BY TARGETING TIR DOMAIN INTERFACES” (UNIVERSITY OF MARYLAND, BALTIMORE, priority 2012, published 2013)
